Publication PMC4396695, “Structure of the Ribosomal Oxygenase OGFOD1 Provides Insights into the Regio- and Stereoselectivity of Prolyl Hydroxylases” (Structure(London, England:1993), 2015)

Tests used:
[1] = molecular target: T1, OGFOD1 (Homo sapiens, UniProt Q8N543); assay: hydroxylation of uS12 […]-70 peptide by MALDI-TOF MS; assay type: biochemical; parameters: 542 aa, N-terminal hexa-histidine tag
T1 sequence (Q8N543 1-542): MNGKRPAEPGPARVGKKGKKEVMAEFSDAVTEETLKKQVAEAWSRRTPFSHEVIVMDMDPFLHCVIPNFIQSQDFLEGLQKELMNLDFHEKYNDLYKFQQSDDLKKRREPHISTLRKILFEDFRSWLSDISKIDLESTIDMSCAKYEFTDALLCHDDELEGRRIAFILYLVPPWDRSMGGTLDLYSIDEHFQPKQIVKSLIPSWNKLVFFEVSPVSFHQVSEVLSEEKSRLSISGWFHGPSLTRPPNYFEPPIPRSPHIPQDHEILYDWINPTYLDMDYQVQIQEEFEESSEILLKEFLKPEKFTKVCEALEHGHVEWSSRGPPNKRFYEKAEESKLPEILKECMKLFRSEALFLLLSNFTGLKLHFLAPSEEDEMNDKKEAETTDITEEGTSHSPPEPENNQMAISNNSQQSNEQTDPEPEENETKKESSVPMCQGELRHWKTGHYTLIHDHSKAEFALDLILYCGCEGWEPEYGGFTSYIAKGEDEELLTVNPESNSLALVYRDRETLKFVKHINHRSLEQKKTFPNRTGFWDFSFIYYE

[2] = molecular target: T2, Tpa1p (Saccharomyces cerevisiae, UniProt P40032); assay: X-ray crystal structure, […] Å; assay type: binding
T2 construct: gene TPA1; full-length (644 aa), N-terminal hexa-histidine tag
T2 sequence (P40032 whole entry): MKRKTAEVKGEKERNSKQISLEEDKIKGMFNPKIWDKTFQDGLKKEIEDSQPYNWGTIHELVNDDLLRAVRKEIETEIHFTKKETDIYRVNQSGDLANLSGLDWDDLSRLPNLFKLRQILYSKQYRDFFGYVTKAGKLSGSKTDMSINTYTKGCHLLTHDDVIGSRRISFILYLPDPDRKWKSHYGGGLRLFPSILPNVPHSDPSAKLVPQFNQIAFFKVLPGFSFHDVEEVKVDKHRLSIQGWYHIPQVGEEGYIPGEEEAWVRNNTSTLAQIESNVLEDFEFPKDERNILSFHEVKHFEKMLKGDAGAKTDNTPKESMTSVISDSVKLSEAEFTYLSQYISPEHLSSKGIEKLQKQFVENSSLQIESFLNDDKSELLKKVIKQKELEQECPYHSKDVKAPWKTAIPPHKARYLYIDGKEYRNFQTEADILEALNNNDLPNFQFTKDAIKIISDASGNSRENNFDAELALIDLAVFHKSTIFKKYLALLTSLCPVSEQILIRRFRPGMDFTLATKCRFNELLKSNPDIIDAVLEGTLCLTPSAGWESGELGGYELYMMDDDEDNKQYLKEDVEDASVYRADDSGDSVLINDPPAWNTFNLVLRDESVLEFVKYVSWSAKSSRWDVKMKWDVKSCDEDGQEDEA

[3] = molecular target: T2, Tpa1p; assay: X-ray crystal structure, […] Å; assay type: binding; remark: listed apart in the source
[4] = molecular target: T1, OGFOD1; assay: X-ray crystal structure, […] Å (also enzyme inhibition, Figure 6A); assay type: binding; parameters: full-length (542 aa), N-terminal hexa-histidine tag

X-ray crystal structure, 2.8 Å [3]	Compound	IC50 [1] [nM]	X-ray crystal structure, 1.9 Å [2]	X-ray crystal structure, 2.1 Å (also enzyme inhibition, Figure 6A) [4]
–	O=C(O)CNC(=O)c1nc(Cl)c2ccccc2c1O [IOX3, 1-chloro-4-hydroxyisoquinoline-3-carbonylglycine]	520 ± 80	In Tpa1p, IOX3 binds similarly to NOG with its glycyl side chain carboxylate positioned to form a salt bridge	–
OGFOD1 and Tpa1p bind NOG similarly.	O=C(O)CNC(=O)C(=O)O [N-oxalylglycine]	–	–	With OGFOD1 the C-5 carboxylate of NOG is positioned to form hydrogen bonds to the side chains of Tyr169 and Arg230
